Measured values published in US9125406B2, “Methods and compositions for control of cabbage looper, trichoplusia ni” (Simon Fraser University, priority 2008, dated 2015).
Read-outs that look alike come from different tables or passages of the source.

Columns and labels:
[1] = test system: third instar T. ni larvae; test: Leaf disk choice feeding deterrence bioassay; format: in vivo, Trichoplusia ni; details: for pest or weed control at 50 µg/cm2, 50 µg/cm2 / pest or weed control at 50 µg/cm2: Trichoplusia, foliar; for pest or weed control at 50 µg/cm2: read-out: % deterrence; for DC50: feeding deterrence DC50, unit not given in Table 12
Text: Cabbage plants (Brassica oleraceae var. Stonehead) used in the bioassays were routinely grown in plastic pots with a mixture of sandy loam soil and peat moss (4:1) in a greenhouse at the University of British Columbia, Vancouver, BC, Canada. Leaves were collected from cabbage plants that were 5-6 weeks old.
T. ni larvae and moths were obtained from a long established colony (>50 generations) maintained on an artificial diet, Velvetbean Caterpillar Diet No. F9796 [Bio-Sery Inc. (Frenchtown, NIL)] in the insectary of the University of British Columbia (UBC).
(§1) Initial screening for feeding deterrent effects was conducted at 50 μg/cm^2 in feeding deterrent bioassays.
Larvae were given the choice of feeding on two leaf disks, one treated with 10 μL of a solution of the test substance painted on each side and the other treated with a carrier solvent alone. The number of larvae was 25 per treatment.
Feeding deterrence data (percent) for initial screening concentration were analyzed by analysis of variance (ANOVA) after arcsin transformation using statistics software (Statistix 7. Analytical Software, Statistix 7 for Windows 95, 98, NT, 2000. Analytical Software, Tallahassee).

T. ni moths [2] = test: Oviposition choice (deterrence) bioassay on cabbage leaves; format: in vivo, Trichoplusia ni; details: for % deterrence / Index = deterrence/mortality: Table 11; for % deterrence: BL mark not explained; for Index = deterrence/mortality: oviposition deterrence divided by mortality
Protocol: as §1
T. ni larvae were reared on normal diet from neonates (<24 h old) until pupation. Pupae were sexed and put in separate plastic containers until emergence. After eclosion, pairs of moths (one male and one female) were introduced into each cage with a control and a treated cabbage leaf. Pairs of moths (n=25) were used per treatment. Each leaf (approximately 100-110 cm^2) was sprayed with 0.5 mL of MeOH or a methanolic solution of the test chemical on each side. Eggs were counted on each cabbage leaf after 48 h.

[3] = test system: third instar T. ni larvae; test: whole plant or invertebrate; details: for mortality at 0.25 %: Trichoplusia, topical, 24 h
Protocol: as §1
Mortality was determined 24 h after spraying larvae directly with test solutions. Third instar T. ni larvae were sprayed in 90 mm×15 mm Petri dishes (Falcon) lined with Fisher Scientific filter paper (90 mm diameter). Small plastic hand spraying bottles (50 mL capacity) were used. Larvae were then transferred to Petri dishes (90 mm×15 mm) with a small piece of artificial diet. Each Petri dish contained 10 larvae. Three replicates, each consisting of 10 larvae, were used per treatment.

T. ni moths [4] = test: Oviposition choice (deterrence) bioassay on cabbage leaves; format: in vivo, Trichoplusia ni; details: for pest or weed control at 0.25 %: Trichoplusia, 48 h, read-out: OD (%) Mean ± SE N = 35-40
T. ni neonates = test: Greenhouse test on cabbage plants with T. ni neonates; format: in vivo, Trichoplusia ni; details: for mean larval recovery / weight reduction: 6 days
Protocol: […] Cabbage plants had 3-5 leaves. Each plant was sprayed (˜1 ml/leaf) and dried before the introduction of insects. There were 3 replicates of 5 plants for each treatment. Approximately nine T. ni neonates (<24 h old) were transferred on each plant. They were weighed after 6 days of feeding on the treatments. Numbers of larvae recovered from each treatment were also recorded. […] The mean larval recovery was not affected at the lowest concentration (0.0002%).

Trichoplusia ni larva = test: Leaf-disc choice bioassay on cabbage: dose-response and blend assay (Example 12); format: in vivo
Protocol: T. ni larvae were raised from eggs (Insect Production Services, Natural Resources Canada) on a wheat-germ based artificial diet (McMorran diet, Insect Production Services, Natural Resources Canada), or raised from eggs from a laboratory colony of T. ni adults, at 22±1° C., 32-40% humidity, 9 h/15 h light/dark photoperiod.
Cabbage (Brassica oleracea L. cv. Golden Acre) plants were grown from seed (Pacific Northwest Seeds, Vernon, B.C.) in sandy loam soil in the laboratory at 21±1° C. beside a south-facing window. Plants received supplemental lighting from grow-lights emitting light of wavelengths 430 and 662 nm for 2 h/d. Plants were about 2-3 months old (with about 8-12 fully expanded leaves) at time of leaf collection for disc choice bioassays.
3c{3,6} was synthesized as described herein. Azadirachtin in a neem oil preparation (TreeAzin [5% azadirachtins A and B]) was obtained from BioForest Technologies Inc., Sault Step. Marie, Canada. Azadirachtin solutions were prepared fresh on the day of the bioassay to avoid degradation. Cetyl alcohol was obtained from Sigma, palmitic acid from BDH Chemicals Ltd., methanol (HPLC-grade) from Calcdon, and isopropanol (2-propanol-205, distilled in glass) from Calcdon Ammonium hydroxide solution was obtained from CanLab.
Blend and whole plant studies used a “vehicle” that consisted of palmitic acid (25 mM), cetyl alcohol (25 mM), and isopropanol (50%). The vehicle was prepared by dissolving palmitic acid and cetyl alcohol in isopropanol. The solution was neutralized with 1M NaOH, followed by step-wise dilution with water.
Leaf discs (disc area: 2.24 cm^2) cut with a no. 10 borer from cabbage plant leaves were painted on each side with 20 μL of treatment solution or solvent, using a Hamilton 25 μL glass syringe, and allowed to dry. One treatment and one control leaf disc were placed on opposite sides (5 cm apart) of a 9 cm diameter Petri dish containing moistened filter paper (Whatman #1, 70 mm). A fasting Trichoplusia ni larva was placed midway between the two leaf discs and oriented away from either disc. Replicate Petri dishes were kept in a plastic basin, protected from light, at 22±1° C. during the feeding period. Larvae fasted for approximately 7 h prior to the experiments. […]
Leaf disc areas consumed were measured using a Canon CanoS can LiDE 20 scanner, CanoScan Toolbox 4.1 software, Microsoft Office Picture Manager, and Un-Scan-It Gel and Graph Digitizing Software v. […]
In the dose-response study leaf-disc choice bioassays were performed with larvae in day 1 or 2 of the 3rd and 4th instar. […] There were not enough data points in the dose-response data for a sigmoidal fit, but the DC50 could be determined by linear regression analysis, as was the case for Akhtar et al. (2007). […]

[5] = Table 8, 50 μg/cm^2, read-out: F.D (%) Mean ± SE N = 25
[6] = feeding deterrence (FD), Table 12, non-toxic feeding deterrents
[7] = oviposition deterrence at 0.25%
[8] = read-out: Mortality (%) N = 3 × 10, Table 8, at 0.25%
[9] = contact toxicity to larvae, negative or zero values replaced by 0.1 for the index (footnote b)
[10] = read-out: Mortality (%) N = 3 × 10, Table 10, at 0.25%

| Structure (SMILES) | pest or weed control at 50 µg/cm2, 50 µg/cm2 [1, 5] [%] | pest or weed control at 50 µg/cm2 [1, 6] [%] | DC50 [1] [μg/cm^2] | mortality at 0.25 % [3, 8] [%] | % mortality [3, 9] | pest or weed control at 0.25 % (T. ni moths [4]; Table 8, at 0.25%) [%] | other results |
| --- | --- | --- | --- | --- | --- | --- | --- |
| CCCCOc1ccccc1OCCC [3a{3, 4}, 1-propoxy-2-butoxybenzene] | 98 ± 2 | 98 | 21 | 19 | 19% | 37 ± 14 | % deterrence (T. ni moths [2]; [7]): 37 BL %; Index = deterrence/mortality (T. ni moths [2]): 1.9 |
| C=CCOc1ccccc1OCCCC [3a{4, 6}, 1-allyloxy-2-butoxybenzene] | 92 ± 6 | 92 | 17 | 19 | 19% | 35 ± 17 | % deterrence (T. ni moths [2]; [7]): 35 BL %; Index = deterrence/mortality (T. ni moths [2]): 1.8 |
| C=CCOc1cccc(OC)c1 [3b{1, 6}, 1-allyloxy-3-methoxybenzene] | 66 ± 12 | – | – | 33 | – | 9 ± 14 | – |
| CCCOc1cccc(OCCC(C)C)c1 [3b{3, 5}, 3-propoxy-1-isopentoxybenzene] | 97 ± 3 | 97 | 17 | 10 | 10% | 9 ± 17 | – |
| C=CCOc1cccc(OCC=C)c1 [3b{6, 6}, 1,3-Diallyloxy benzene] | 97 ± 3 | 97 | 20 | 13 | 13% | 25 to 30 | – |
| CCCOc1ccc(OCC)cc1 [3c{2, 3}, 4-ethoxy-1-propoxybenzene] | 100 | 100 | 33 | 17 | 17% | 10 ± 13 | – |
| C=CCOc1ccc(OCC)cc1 [3c{2, 6}, 1-allyloxy-4-ethoxybenzene] | 73 ± 12 | – | – | 6.7 | – | < 30 | – |
| C=CCOc1ccc(OCCC)cc1 [3c{3, 6}, 1-allyloxy-4-propoxybenzene] | 100 | 100 | 0.5 | – | −11 ^b % | < 30 | mean larval recovery (T. ni neonates; 0.0002% spray): not affected; weight of the larvae (T. ni neonates; 0.0002% spray, 6 days feeding on cabbage plants): not affected; mean larval recovery (T. ni neonates; 0.0005% spray): 66.7%; weight reduction (T. ni neonates; 0.0005% spray): 33.3%; mean larval recovery (T. ni neonates; 0.001% spray): 52%; weight reduction (T. ni neonates; 0.001% spray): 48%; growth reduction (T. ni neonates; 10 ppm, highest concentration): ~50%; FDI (%) mean (SE) (Trichoplusia ni larva; 45 ug/cm^2): 100 (0) b %; FDI (%) mean (SE) (Trichoplusia ni larva; 45 ug/cm^2, listed as 3c{3,6}): 100±0%; DC50 (Trichoplusia ni larva; 3rd and 4th instar larvae, 83% methanol, linear regression 9 to 45 μg/cm^2): 27 μg/cm^2 |
| C=CCOc1ccc(OCCC(C)C)cc1 [3c{5, 6}, 1-allyloxy-4-isopentoxybenzene] | – | – | – | – | – | -25 ± 12 | pest or weed control at 50 µg/cm2, 50 µg/cm2 ([1]; Table 3, 1,4-dialkoxybenzenes, feeding deterrence at 50 μg/cm^2, read-out: FD (%), mean ± SE (n = 25)): 75.1 ± 12.7%; pest or weed control at 0.25 % (T. ni moths [2]; Trichoplusia, 48 h, Table 3, oviposition deterrence at 0.25%, 48 h, read-out: OD (%), mean ± SE (n = 25-33)): 18.8 ± 14.3%; mortality at 0.25 % ([3]; read-out: mortality (%) (n = 3 × 10), Table 3, at 0.25%): 7% |
| C=CCc1c(OCC)cccc1OCCC [5b{3, 2} y (100% y), 1-ethoxy-2-allyl-3-propoxy-benzene] | – | – | – | – | – | – | pest or weed control at 50 µg/cm2, 50 µg/cm2 ([1]; Table 7, second lots and purified isomers, 50 μg/cm^2, read-out: F.D (%) Mean ± SE N = 25): 74 ± 14%; mortality at 0.25 % ([3]; read-out: Mortality (%) N = 3 × 10, Table 7, second lots and purified isomers, at 0.25%): 0%; pest or weed control at 0.25 % (T. ni moths [4]; Table 7, second lots and purified isomers, at 0.25%): -6.4 ± 11.4% |
| C=CCc1cc(OC)ccc1OC [5c{1, 1}, 1,4-dimethoxy-2-allyl-benzene] | – | – | 20 | – | – | – | pest or weed control at 50 µg/cm2 [1]: 80%; pest or weed control at 50 µg/cm2, 50 µg/cm2 ([1]; read-out: F.D (%) Mean ± SE N = 25): 80 ± 11%; mortality at 0.25 % [3, 10]: 38.9%; % mortality ([3]; in vivo): 39%; pest or weed control at 0.25 % (T. ni moths [4]): 14 ± 12% |
| C=CCc1cc(OCCC)ccc1OC [5c{3, 1}, 1-methoxy-2-allyl-4-propoxy-benzene] | – | 92 | 9 | – | 6% | – | pest or weed control at 50 µg/cm2, 50 µg/cm2 ([1]; Table 10, 50 μg/cm^2, read-out: F.D (%) Mean ± SE N = 25): 92 ± 6%; mortality at 0.25 % [3, 10]: 6.4%; pest or weed control at 0.25 % (T. ni moths [4]; Table 10, at 0.25%): 7 ± 15% |
| CCN(CC)C(=O)c1cccc(C)c1 [DEET, reference compound] | – | – | – | – | – | – | F.D (%) Mean ± SE N = 25 ([1]; Table 8, 50 μg/cm^2): 60 ± 15 ^AB %; Mortality (%) N = 3 × 10 ([3]; Table 8, at 0.25%): 7%; OD (%) Mean ± SE N = 35-40 (T. ni moths [4]; Table 8, at 0.25%): 23 ± 14% |
| C/C=C(\C)C(=O)O[C@H]1C[C@@H](OC(C)=O)[C@@]2(C(=O)OC)CO[C@H]3[C@@H](O)[C@@](C)([C@]45O[C@@]4(C)[C@H]4C[C@@H]5O[C@@H]5OC=C[C@@]54O)[C@H]4[C@]1(CO[C@]4(O)C(=O)OC)[C@@H]32 [azadirachtin, reference compound] | – | – | – | – | – | – | FDI (%) mean (SE) (Trichoplusia ni larva; 4.9 ug/cm^2 in vehicle, fifth instar larvae): 43 (20) a % |
